Where two headings read alike, the source gives them in different places. Peptide text beside a SMILES is read from it.
Key:
HSV-1 KOS mutant hrR3 = experiment: LacZ+ virus (hrR3) entry assay with pre-adsorbed virus (entry block); type: cell-based
trypsin = target: T1, trypsin (Sus scrofa, UniProt P00761); experiment: Trypsinization of peptides; conditions: 0.005 or 0.01% trypsin, 1 h at 37° C.
T1 construct: purchased BioWhittaker 17-160E
Protocol: Trypsinization of peptides: Peptides dissolved in serum-free DMEM were exposed to 0.005 or 0.01% trypsin for 1 h at 37° C. The trypsin was then inactivated with a 1.3-fold molar excess of soybean trypsin inhibitor and the ability of the peptides to inactivate virions was tested as described above (centrifugation assay). In controls, trypsin was inactivated before it was added to the peptides.
In Panel B, peptides in serum-free medium were pre-treated with active trypsin (open bars) or inactivated trypsin (shaded bars) for 1 h at 37° C. before they were added to virions for 1 h at 37° C. (see Example 1). The treated virions were then pelleted and resuspended in serum-supplemented medium and assayed for infectivity without further trypsinization. The peptide concentrations were as high or higher than those used in Panel A: […] TAT-C, 50 μM bKLA, 200 μM EB and bHOM-9. Trypsin concentrations used in both Panels A and B, were 0.005% (for bKLA, EB and bHOM-9) or 0.01% (for TAT-C and the ‘no peptide’ control).

cornea = experiment: In vivo peptide toxicity, cornea; design: species or system BALB/C mice; conditions: for blepharitis: four times a day for seven days
Protocol: (i) Cornea: Four-6-week-old female BALB/C mice (Harlan Sprague Dawley, Indianapolis, Ind.) were anesthetized by halothane inhalation (3-5%). A 2.0 μL drop of serum-free 5×DMEM solution containing 6.1 mM EB, 6.1 mM EBX, 7.5 mM TAT-C, 7.5 mM n50,51 TAT-C, 7.5 mM TAT-Cd, or 11.2 mM bHOMd or serum-free DMEM only (control) was then placed on the cornea and the mice were returned to their cages. Each group consisted of 5 mice, except for 11.2 mM bHOMd, and 7.5 mM TAT-Cd, which consisted of 4 mice. Only the right eye in each mouse received the peptide. Treatments were given 4 times per day at least 2 hrs apart for 7 days. On days 1, 5, and 7, the mice were examined microscopically for evidence of blepharitis, punctate keratopathy, dendrite ulceration and geographic ulceration. Damage to the corneal epithelium was assessed by staining with 1.0% […] and examination under a microscope with blue light. Blepharitis was scored: 1+ for noticeable puffy eyelids, 2+ for puffy eyelids with moderate crusting, 3+ for eye 50% swollen shut with severe crusting, and 4+ for eye totally swollen and crusted shut (Brandt et al., 1992). Punctate keratopathy, dendrite ulceration, and geographic ulceration were scored: 1+ for <25% of the cornea involved, 2+ for 25-50% involved, 3+ for 50-75% involved, and 4+ for >75% involved. The mean disease score for each group of mice on each day was calculated by the sum of disease scores in each group on each day divided by the numbers of mice in that group. On day 7, following the last treatment, the mice were sacrificed and the eyes were removed, fixed in 10% formalin, embedded in paraffin, sectioned (5μ each), and stained with hematoxylin and eosin as we have described previously (Brandt et al., 1996). Sections were then examined for evidence of damage to the cornea, sclera, lens, and retina.

T1 sequence (P00761 9-231): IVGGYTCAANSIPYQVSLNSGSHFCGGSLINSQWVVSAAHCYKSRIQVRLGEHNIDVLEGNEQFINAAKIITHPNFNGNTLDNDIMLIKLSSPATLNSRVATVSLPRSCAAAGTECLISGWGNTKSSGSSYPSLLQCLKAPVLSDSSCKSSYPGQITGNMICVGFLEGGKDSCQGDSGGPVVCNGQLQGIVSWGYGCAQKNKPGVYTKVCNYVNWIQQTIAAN

CC(C)C[C@H](NC(=O)[C@H](C)NC(=O)[C@H](CC(C)C)NC(=O)[C@H](CC(C)C)NC(=O)[C@@H](NC(=O)[C@H](C)NC(=O)[C@@H]1CCCN1C(=O)[C@H](CC(C)C)NC(=O)[C@H](CC(C)C)NC(=O)[C@H](C)NC(=O)[C@@H](NC(=O)[C@H](C)NC(=O)[C@H](C)NC(=O)[C@H](CCCCN)NC(=O)[C@H](CCCCN)NC(=O)[C@H](CCCNC(=N)N)NC(=O)[C@@H](N)CCCNC(=N)N)C(C)C)C(C)C)C(=O)N[C@@H](CC(C)C)C(=O)N[C@@H](C)C(=O)N1CCC[C@H]1C(=O)O [EB] (H-RRKKAAVALLPAVLLALLAP-OH)
reduction of the number of lacZ+ cells (HSV-1 KOS mutant hrR3; 25 μM peptide, pre-adsorbed virus): > 90% | virus entry inhibited (HSV-1 KOS mutant hrR3; 50 μM, 1 hour periods between 1 and 4 hours post-infection): 70-80% | IC50 (HSV-1 KOS mutant hrR3; FIG. 7B, read-out: inhibition of entry of pre-adsorbed virus IC50): 15000 nM | IC50 (HSV-1 KOS mutant hrR3; read-out: Entry Blocking Activity IC50): 15000 to 26000 nM | effect of trypsinization of the peptide on its antiviral activity (trypsin): completely abolished their antiviral activity | blepharitis (cornea): no effect | corneal pathology (cornea; mouse, in vivo): no evidence of corneal pathology | time needed to induce cellular resistance (hrR3; 30 μM peptide, 37° C.): almost instantaneously | reversibility of resistance induced at 4° C. by rinsing with 0.5 M NaCl (hrR3; induced at 4° C.): only partially reversible | reversibility of resistance induced at 37° C. by rinsing with 0.5 M NaCl (hrR3; induced at 37° C.): completely irreversible | IC50 (hrR3; read-out: IC50 for rendering cells resistant to subsequent viral infection in the absence of peptide, cells exposed 1 h at 37° C., peptide rinsed off): 2300 nM | IC50 (hrR3; read-out: IC50 of cellular resistance after 8.5 h in peptide-free medium, 8.5 h after first exposure): > 100000 nM | IC50 (hrR3; read-out: IC50 of cellular resistance, first exposure, infected immediately after 1 h exposure): 4000 nM | IC50 (hrR3; read-out: IC50 of cellular resistance, second exposure, second exposure 8.5 h after the first): 2500 nM

N=C(N)NCCC[C@H](NC(=O)CN)C(=O)N[C@@H](CCCCN)C(=O)N[C@@H](CCCCN)C(=O)N[C@@H](CCCNC(=N)N)C(=O)N[C@@H](CCCNC(=N)N)C(=O)N[C@@H](CCC(N)=O)C(=O)N[C@@H](CCCNC(=N)N)C(=O)N[C@@H](CCCNC(=N)N)C(=O)N[C@@H](CCCNC(=N)N)C(=O)N[C@@H](CS)C(=O)O [TAT-C, NH2-GRKKRRQRRRC-COOH]
IC50 (HSV-1 KOS mutant hrR3; 33° C., read-out: Entry Block 33° C. IC50): 3000 nM | IC50 (HSV-1 KOS mutant hrR3; 33° C., read-out: Entry Block IC50): 3000 nM | IC50 (HSV-1 KOS mutant hrR3; 33° C., read-out: inhibition of entry IC50): 3000 nM | IC50 (HSV-1 KOS mutant hrR3; 37° C., read-out: Entry Block 37° C. IC50): 3100 nM | temperature dependence of inhibition of entry and virus inactivation (HSV-1 KOS mutant hrR3; FIGS. 16A, B): completely temperature-independent | effect of trypsinization of the peptide on its antiviral activity (trypsin): completely abolished their antiviral activity | blepharitis (cornea): mild blepharitis | inhibition after rinsing with 0.5 M NaCl (hrR3; 30 μM peptide 1 h at 4° C.): completely reversed | infection blocked (hrR3; 30 μM peptide 1 h at 4° C., rinsed with culture medium alone): 50%

Source: patent publication US7432045B2 (priority 2003, dated 2008)
